# Experimental data: patent publication US20220370380A1, “EXERCISE-INDUCED HEMOLYSIS SUPPRESSANT AND COMPOSITION FOR SUPPRESSING/IMPROVING EXERCISE-INDUCED HEMOLYTIC ANEMIA” (AstaReal Co., Ltd., priority 2019, published 2022)
# Where two headings read alike, the source gives them in different places.
# How the values were obtained:
# [1] = cited from earlier work
# ordinary people = test: Changes in number of erythrocytes and hemoglobin content of ordinary people (FIG. 3); type: in vivo, human; conditions: between before and after taking the test food
# [2] = test system: men's medium- and long-distance runners; test: Confirmation test for suppression of hemolysis due to oxidative damage (urinary 8-OHdG and isoprostane production rate); type: in vivo, human
# Excerpt: In order to confirm whether or not hemolysis due to oxidative damage is suppressed in the “astaxanthin group” of Example 1 (whether or not oxidative damage to erythrocytes (red blood cells) is suppressed), the production rate of 8-OHdG and isoprostane contained in the urine of the subjects of the “astaxanthin group” and the “control group” was investigated during the “test period” of Weeks 0 to 8 through the “acclimatization period (Weeks 0 to 4)” and the “observation period (Weeks 4 to 8)” of Example 1. The period of the confirmation test was set to the “test period” of Weeks 0 to 8 through the “acclimatization period (Weeks 0 to 4)” and the “observation period (Weeks 4 to 8)” because there was no causal relationship of whether or not hemolysis occurred due to oxidative damage with whether running training was performed in the highlands or flatlands.
# Specifically, this test was performed as follows. Urine was collected from the subjects of the “astaxanthin group” and the “control group” at Week 0 (start date of test food intake), Week 4, and Week 8 (last day of test food intake), and the production rate of 8-OHdG and the production rate of isoprostane were measured. Thereafter, their averages were calculated, and then the transitions of the averages of the production rate of 8-OHdG and the production rate of isoprostane from Week 0 to Week 8 in each of the “astaxanthin group” and the “control group” thus calculated were observed.
# The 8-OHdG concentration in the urine collected from the subjects of the “astaxanthin group” and the “control group” was measured using a New 8-OHdG Check ELISA (ELISA kit for 8-OHdG (product code: KOG-2005/E), available from NIKKEN SEIL Co., Ltd.) by an ELISA method. The production rate of 8-OHdG per body weight and time was calculated by the formula shown below.
# Production rate of 8-OHdG (ng/kg/hr)={8-OHdG concentration in urine (ng/mL)×volume of urine collected (mL)}/{elapsed time since the last urination (h)×body weight of subject (kg)}
# The isoprostane concentration in the urine collected from the subjects of the “astaxanthin group” and the “control group” was measured using a urinary isoprostane measurement ELISA kit (8-iso-PGF2a ELISA kit (product code: ADI-900-010), available from Enzo Life Sciences) by an ELISA method. The production rate of isoprostane per body weight and time was calculated by the formula shown below.
# Production rate of isoprostane (ng/kg/hr)={isoprostane concentration in urine (ng/mL)×volume of urine collected (mL)}/{elapsed time since the last urination (h)×body weight of subject (kg)} […]
# [3] = literature: Takahashi et al. 2004; cited from earlier work
# [4] = test system: men's medium- and long-distance runners; test: Confirmation test for antioxidant capacity (serum total antioxidant capacity); type: in vivo, human; conditions: test period Week 0 to Week 8; astaxanthin group versus control group
# Protocol: In order to confirm the antioxidant capacity in the “astaxanthin group” of Example 1, the concentrations of water-soluble antioxidants contained in the serum of the subjects of the “astaxanthin group” and the “control group” were measured during the “test period” of Weeks 0 to 8 through the “acclimatization period (Weeks 0 to 4)” and the “observation period (Weeks 4 to 8)” of Example 1. The period of the confirmation test was set to the “test period” of Weeks 0 to 8 through the “acclimatization period (Weeks 0 to 4)” and the “observation period (Weeks 4 to 8)” because there was no causal relationship of the antioxidant capacity with whether running training was performed in the highlands or flatlands.
# Specifically, this test was performed as follows. The blood samples were collected from the subjects of the “astaxanthin group” and the “control group” at Week 0 (start date of test food intake), Week 4, and Week 8 (last day of test food intake), to measure the concentrations of water-soluble antioxidants in serum and measure the total antioxidant capacity. Thereafter, the average was calculated, and the transition of the average of the total antioxidant capacity from Week 0 to Week 8 in each of the “astaxanthin group” and the “control group” thus calculated was observed. […]
# [5] = test system: men's medium- and long-distance runners; test: Confirmation test for suppression of exercise-induced hemolysis using astaxanthin; type: in vivo, human; conditions: compared with control group
# Protocol: A confirmation test to confirm whether or not exercise-induced hemolysis that causes exercise-induced hemolytic anemia can be suppressed by orally taking a test food containing astaxanthin by a subject was conducted as follows.
# Two types of test foods, a “capsules for astaxanthin group” containing a Haematococcus algae-derived pigment and a “capsules for control group” not containing the Haematococcus algae-derived pigment were prepared. Further, twenty-eight men's medium- and long-distance runners aged from 18 to 22 belonging to the athletic club of Tokai University as subjects were divided into two groups. Thirteen subjects were designated as the “astaxanthin group”, and fifteen subjects were designated as the “control group”. […]
# Specifically, running training in the highlands was first conducted for 4 weeks, setting the period of running training in the highlands as “acclimatization period (Weeks 0 to 4)”, then blood samples were collected from the subjects of the “astaxanthin group” and the “control group”, to measure the number of erythrocytes (red blood cells), the hemoglobin content (amount of blood pigment; hemoglobin concentration), and the serum haptoglobin concentration. […] This test was conducted by observing the rate of change in the number of erythrocytes, the rate of change in the hemoglobin content (hemoglobin concentration), and the transition of the serum haptoglobin concentration from the start date to the end date of the observation period in each of the “astaxanthin group” and the “control group” thus measured. […]
# The blood samples collected from the subjects of the “astaxanthin group” and the “control group” were treated with EDTA-2K to measure the number of erythrocytes using the sheath flow electrical resistance detection method. […] On the other hand, the collected blood samples were transferred to a tube containing EDTA-2Na and centrifuged to separate the plasma fraction, to measure the serum haptoglobin concentration using an ELISA kit for haptoglobin quantification (Quantikine Human Haptoglobin ELISA Kit (product code: DHAPGO), available from R&D Systems, Inc.). […]
structure (smiles),measurement,setting,value
"CC1=C(/C=C/C(C)=C/C=C/C(C)=C/C=C/C=C(C)/C=C/C=C(C)/C=C/C2=C(C)C(=O)C(O)CC2(C)C)C(C)(C)CC(O)C1=O (stereo not drawn) [astaxanthin, 3,3′-dihydroxy-β,β-carotene-4,4′-dione]",antioxidant activity relative to vitamin E,[1],1000 times
same,antioxidant activity relative to vitamin E,[1]; listed as Astaxanthin,"about 1,000 times"
same,antioxidant activity relative to β-carotene,[1]; relative to β-carotene,about 40 times
same,hemoglobin content (hemoglobin concentration),ordinary people,no significant difference
same,number of erythrocytes,ordinary people,no significant difference
same,average of measured values of the production rate of isoprostane (urine),"[2]; Week 0, astaxanthin group compared with control group",low
same,average of measured values of the production rate of isoprostane (urine),"[2]; Week 4 and Week 8, astaxanthin group versus control group",no difference observed
same,"average production rate (urine marker), comparison between before and after taking the test food","[2]; after intake compared with before intake (Week 0), within astaxanthin group",increased after intake
same,average of measured values of the production rate of 8-OHdG (urine),"[2]; test period Week 0 to Week 8, astaxanthin group versus control group",no significant difference
same,mutagenicity,[3],no mutagenicity observed
same,average of measured values of the total antioxidant capacity (serum),[4],no significant difference
same,rate of change in the number of erythrocytes during the observation period,"[5]; astaxanthin 12 mg/day oral (free form), observation period Weeks 4 to 8, running training in flatlands",high
same,serum haptoglobin concentration on the start date of the observation period,"[5]; astaxanthin 12 mg/day oral, Week 4",almost no difference
same,serum haptoglobin concentration on the end date of the observation period,"[5]; astaxanthin 12 mg/day oral, Week 8",extremely high
same,rate of change in the hemoglobin content (hemoglobin concentration) during the observation period,"[5]; astaxanthin 12 mg/day oral, observation period Weeks 4 to 8, running training in flatlands",also high
